For eight molecules, carcinogen call and TD50 results are on record in PubChem BioAssay AID1745844 (Carcinogenic Potency Database (CPDB), 2022).

The subject of the series is rodent lifetime carcinogenesis bioassay, tumor incidence TD50. Briefly: carcinogenic potency in animals, long-term in vivo studies, CPDB compilation (AID 1745844).

Molecules are shown by their SMILES. Calls of active or inactive are those of the source. How the calls were made is not given here.

Consider `CC`, for which the carcinogen call reads like this: (mouse, strain B6C3F1, females, in feed, site: any site (literature study), lesion: several types, types named in the paper, dosed 103 weeks, study length 105 weeks) “negative (inactive)”; (mouse, strain B6C3F1, females, in feed, site: liver, lesion: several types, types named in the paper, dosed 96 weeks, study length 106 weeks) “negative (inactive)”; (mouse, strain B6C3F1, females, in feed, site: lung, lesion: several types, types named in the paper, dosed 96 weeks, study length 106 weeks) “negative (inactive)”; (mouse, strain B6C3F1, males, in feed, site: liver, lesion: several types, types named in the paper, dosed 96 weeks, study length 106 weeks) “negative (inactive)”; (mouse, strain B6C3F1, males, in feed, site: lung, lesion: several types, types named in the paper, dosed 96 weeks, study length 106 weeks) “negative (inactive)”. Also, the TD50 (in general, the 50% point of the dose-response relation for the toxic effect studied) is, setting by setting: (mouse, strain B6C3F1, females, in feed, site: forestomach, lesion: several types, types named in the paper, dosed 96 weeks, study length 106 weeks) 111000 mg/kg/day (inactive); (mouse, strain B6C3F1, females, in feed, site: liver, lesion: hepatocellular adenoma + hepatocellular carcinoma + neoplastic nodule, dosed 103 weeks, study length 105 weeks) 31100 mg/kg/day; (mouse, strain B6C3F1, females, in feed, site: lung, lesion: alveolar/bronchiolar adenoma + alveolar/bronchiolar carcinoma, dosed 103 weeks, study length 105 weeks) 24700 mg/kg/day; (mouse, strain B6C3F1, males, in feed, site: all sites, lesion: hemangioma, dosed 103 weeks, study length 105 weeks) 80800 mg/kg/day (inactive); (mouse, strain B6C3F1, males, in feed, site: any site (literature study), lesion: several types, types named in the paper, dosed 103 weeks, study length 105 weeks) 46000 mg/kg/day; (mouse, strain B6C3F1, males, in feed, site: forestomach, lesion: squamous-cell papilloma, dosed 96 weeks, study length 106 weeks) 240000 mg/kg/day (inactive). For the same molecule, the TD50 reads like this: (rat, strain Fischer 344, females, in feed, site: any site (literature study), lesion: several types, types named in the paper, dosed 103 weeks, study length 105 weeks) 8310 mg/kg/day (inactive); (rat, strain Fischer 344, males, in feed, site: any site (literature study), lesion: several types, types named in the paper, dosed 103 weeks, study length 105 weeks) 7970 mg/kg/day (inactive); (rat, strain Fischer 344, males, in feed, site: liver, lesion: hepatocellular adenoma + hepatocellular carcinoma + neoplastic nodule, dosed 103 weeks, study length 105 weeks) 33500 mg/kg/day.

Regarding `O=NN1CC=CCO1`, the TD50 (rat, strain Sprague-Dawley, both sexes, in drinking water, site: any site (literature study), lesion: malignant tumor, dosed 87 weeks, study length 101 weeks) is 90.6 mg/kg/day; the TD50 (rat, strain Sprague-Dawley, both sexes, in drinking water, site: any site (literature study), lesion: several types, types named in the paper, dosed 87 weeks, study length 101 weeks) worked out at 110 mg/kg/day; the TD50 (rat, strain Sprague-Dawley, both sexes, in drinking water, site: liver, lesion: hepatoma, dosed 87 weeks, study length 101 weeks) is 417 mg/kg/day (inactive).

In the case of `Cc1cccc(Nc2cc(Cl)nc(SCC(=O)NCCO)n2)c1C`, the TD50 is 44.6 mg/kg/day (mouse, strain CSb, females, in feed, site: liver, lesion: hepatocellular carcinoma, dosed 82 weeks, study length 82 weeks) and 6.49 mg/kg/day (rat, strain Fischer 344, males, in feed, site: liver, lesion: hepatocellular carcinoma, dosed 75 weeks, study length 82 weeks).

Turning to `O=NN(CCCC(F)(F)F)CCCC(F)(F)F`, the TD50 is, setting by setting: (rat, strain Sprague-Dawley, females, by gavage, site: any site (literature study), lesion: malignant tumor, dosed 32 weeks, study length 101 weeks) 0.291 mg/kg/day; (rat, strain Sprague-Dawley, females, by gavage, site: liver, lesion: hepatocellular carcinoma, dosed 32 weeks, study length 101 weeks) 0.707 mg/kg/day; (rat, strain Sprague-Dawley, females, by gavage, site: lung, lesion: several types, types named in the paper, dosed 32 weeks, study length 101 weeks) 1.12 mg/kg/day; (rat, strain Sprague-Dawley, males, by gavage, site: any site (literature study), lesion: malignant tumor, dosed 32 weeks, study length 101 weeks) 0.363 mg/kg/day; (rat, strain Sprague-Dawley, males, by gavage, site: liver, lesion: hepatocellular carcinoma, dosed 32 weeks, study length 101 weeks) 0.793 mg/kg/day; (rat, strain Sprague-Dawley, males, by gavage, site: lung, lesion: several types, types named in the paper, dosed 32 weeks, study length 101 weeks) 0.793 mg/kg/day.

Take `O=[N+]([O-])c1ccc2nc[nH]c2c1`: the TD50 is, setting by setting: (mouse, strain B6C3F1, females, in feed, site: any site (literature study), lesion: several types, types named in the paper, dosed 78 weeks, study length 95 weeks) 429 mg/kg/day; (mouse, strain B6C3F1, females, in feed, site: liver, lesion: hepatocellular adenoma + hepatocellular carcinoma + neoplastic nodule, dosed 78 weeks, study length 95 weeks) 354 mg/kg/day; (mouse, strain B6C3F1, females, in feed, site: liver, lesion: hepatocellular adenoma + hepatocellular carcinoma, dosed 78 weeks, study length 95 weeks) 354 mg/kg/day; (mouse, strain B6C3F1, females, in feed, site: liver, lesion: hepatocellular carcinoma, dosed 78 weeks, study length 95 weeks) 762 mg/kg/day; (mouse, strain B6C3F1, females, in feed, site: pituitary gland, lesion: adenoma, NOS + chromophobe adenoma, dosed 78 weeks, study length 95 weeks) 335 mg/kg/day; (mouse, strain B6C3F1, males, in feed, site: any site (literature study), lesion: several types, types named in the paper, dosed 78 weeks, study length 95 weeks) 1980 mg/kg/day. The TD50 was 392 mg/kg/day (mouse, strain B6C3F1, males, in feed, site: liver, lesion: hepatocellular adenoma + hepatocellular carcinoma + neoplastic nodule, dosed 78 weeks, study length 95 weeks); 392 mg/kg/day (mouse, strain B6C3F1, males, in feed, site: liver, lesion: hepatocellular adenoma + hepatocellular carcinoma, dosed 78 weeks, study length 95 weeks); 423 mg/kg/day (mouse, strain B6C3F1, males, in feed, site: liver, lesion: hepatocellular carcinoma, dosed 78 weeks, study length 95 weeks); 8830 mg/kg/day (rat, strain Fischer 344, males, in feed, site: liver, lesion: hepatocellular adenoma + hepatocellular carcinoma + neoplastic nodule, dosed 78 weeks, study length 105 weeks). The carcinogen call was “negative (inactive)” (rat, strain Fischer 344, females, in feed, site: any site (literature study), lesion: several types, types named in the paper, dosed 78 weeks, study length 105 weeks) and “negative (inactive)” (rat, strain Fischer 344, males, in feed, site: any site (literature study), lesion: several types, types named in the paper, dosed 78 weeks, study length 105 weeks).

Turning to `ClC/C=C/CCl`, the TD50 (mouse, strain Ha/ICR, females, i.p., site: abdomen, lesion: sarcoma, dosed 76 weeks, study length 76 weeks) was 1.52 mg/kg/day.

`Nc1cnn([C@@H]2O[C@H](CO)[C@@H](O)[C@H]2O)c(=O)n1`: the carcinogen call (rat, strain Fischer 344, males, i.p., site: any site (literature study), lesion: one or several types, types not named, dosed 52 weeks, study length 52 weeks) is “negative (inactive)”.

Turning to `[Cl][Hg][Cl]`, the TD50 was 5.83 mg/kg/day (inactive) (mouse, strain B6C3F1, females, by gavage, site: any site (literature study), lesion: several types, types named in the paper, dosed 103 weeks, study length 104 weeks); 40.8 mg/kg/day (mouse, strain B6C3F1, females, by gavage, site: lung, lesion: alveolar/bronchiolar adenoma + alveolar/bronchiolar carcinoma, dosed 103 weeks, study length 104 weeks); 240 mg/kg/day (mouse, strain B6C3F1, males, by gavage, site: kidney, lesion: tubular-cell adenocarcinoma, dosed 103 weeks, study length 104 weeks); 81.6 mg/kg/day (mouse, strain B6C3F1, males, by gavage, site: kidney, lesion: tubule adenoma + tubular-cell adenocarcinoma, dosed 103 weeks, study length 104 weeks); 125 mg/kg/day (mouse, strain B6C3F1, males, by gavage, site: kidney, lesion: tubule adenoma, dosed 103 weeks, study length 104 weeks); 3.58 mg/kg/day (inactive) (mouse, strain Charles River CD1, females, in drinking water, site: all sites, lesion: lymphoma and leukemia, combined, dosed 118 weeks, study length 118 weeks). The TD50 runs as follows: (mouse, strain Charles River CD1, females, in drinking water, site: any site (literature study), lesion: malignant tumor, dosed 118 weeks, study length 118 weeks) 5.55 mg/kg/day (inactive); (mouse, strain Charles River CD1, females, in drinking water, site: any site (literature study), lesion: several types, types named in the paper, dosed 118 weeks, study length 118 weeks) 2.42 mg/kg/day (inactive); (mouse, strain Charles River CD1, males, in drinking water, site: any site (literature study), lesion: several types, types named in the paper, dosed 119 weeks, study length 119 weeks) 3.2 mg/kg/day (inactive); (mouse, strain Charles River CD1, males, in drinking water, site: lung, lesion: one or several types, types not named, dosed 119 weeks, study length 119 weeks) 11.2 mg/kg/day (inactive); (rat, strain Fischer 344, females, by gavage, site: forestomach, lesion: squamous-cell papilloma, dosed 103 weeks, study length 104 weeks) 51.8 mg/kg/day; (rat, strain Fischer 344, females, by gavage, site: liver, lesion: hepatocellular adenoma + hepatocellular carcinoma + neoplastic nodule, dosed 103 weeks, study length 104 weeks) 105 mg/kg/day. For the same molecule, the TD50 reads like this: (rat, strain Fischer 344, males, by gavage, site: adrenal medulla, lesion: pheochromocytoma benign, bilateral + pheochromocytoma, benign, dosed 103 weeks, study length 104 weeks) 1.56 mg/kg/day; (rat, strain Fischer 344, males, by gavage, site: adrenal medulla, lesion: pheochromocytoma benign, bilateral + pheochromocytoma, complex + pheochromocytoma, malignant + pheochromocytoma malignant, bil, dosed 103 weeks, study length 104 weeks) 1.6 mg/kg/day; (rat, strain Fischer 344, males, by gavage, site: any site (literature study), lesion: several types, types named in the paper, dosed 103 weeks, study length 104 weeks) 1.04 mg/kg/day; (rat, strain Fischer 344, males, by gavage, site: forestomach, lesion: squamous-cell papilloma, dosed 103 weeks, study length 104 weeks) 3.12 mg/kg/day; (rat, strain Fischer 344, males, by gavage, site: liver, lesion: hepatocellular adenoma + hepatocellular carcinoma + neoplastic nodule, dosed 103 weeks, study length 104 weeks) 10.3 mg/kg/day; (rat, strain Fischer 344, males, by gavage, site: testis, lesion: interstitial-cell adenoma, bilateral + interstitial-cell adenoma, dosed 103 weeks, study length 104 weeks) 0.825 mg/kg/day. Moreover, the TD50 came out at 5.25 mg/kg/day (rat, strain Fischer 344, males, by gavage, site: thyroid gland, lesion: follicular-cell adenoma + follicular-cell carcinoma, dosed 103 weeks, study length 104 weeks); 5.98 mg/kg/day (rat, strain Fischer 344, males, by gavage, site: thyroid gland, lesion: follicular-cell adenoma, dosed 103 weeks, study length 104 weeks); 7.32 mg/kg/day (rat, strain Fischer 344, males, by gavage, site: thyroid gland, lesion: follicular-cell carcinoma, dosed 103 weeks, study length 104 weeks). The carcinogen call was “negative (inactive)” (mouse, strain Charles River CD1, females, in drinking water, site: lung, lesion: one or several types, types not named, dosed 118 weeks, study length 118 weeks) and “negative (inactive)” (mouse, strain Charles River CD1, males, in drinking water, site: any site (literature study), lesion: malignant tumor, dosed 119 weeks, study length 119 weeks).
